Species: Rattus norvegicus
Test: Open TG-GATES - Regimen: Single
Format: toxicity, organism-based, Sprague-Dawley
Set-up: regimen Single, gender Male, age 6 weeks
Settings: in vivo, ip, 150 mg/kg, route intraperitoneal injection, dose level Low; for APTT / Bas / Eos / Fbg / Hb / Ht / Lym / MCH / MCHC / MCV / Mono / Neu / PT / Plat / RBC / Ret / WBC: tissue Blood; for KIDNEY_L / KIDNEY_R / KIDNEY_TOTAL: tissue Kidney; for LIVER: tissue Liver; for A/G / ALP / ALT / AST / BUN / CRE / Ca / Cl / DBIL / GLC / IP / K / LDH / Na / PL / RALB / TBIL / TC / TG / TP / gamma-GTP: tissue Plasma

CCCCS(=N)(=O)CCC(N)C(=O)O (configuration not stated) [BUTHIONINE SULFOXIMINE]
TERMINAL_BW (3 h): 216.6 g | APTT (3 h): 16.5 s | Bas (3 h): 0% | Eos (3 h): 0.8% | Fbg (3 h): 216.4 mg/dL | Hb (3 h): 13 g/dL | Ht (3 h): 40% | Lym (3 h): 74.8% | MCH (3 h): 21.5 pg | MCHC (3 h): 32.6% | MCV (3 h): 66 fL | Mono (3 h): 6% | Neu (3 h): 18.6% | PT (3 h): 12.1 s | Plat (3 h): 112.9 x10_4/uL | RBC (3 h): 606.2 x10_4/ul | Ret (3 h): 9.2% | WBC (3 h): 102.3 x10_2/uL | KIDNEY_L (3 h): 0.9 g | KIDNEY_R (3 h): 1 g | KIDNEY_TOTAL (3 h): 1.9 g | LIVER (3 h): 10.3 g | A/G (3 h): 2.3 | ALP (3 h): 957.2 IU/L | ALT (3 h): 38.8 IU/L | AST (3 h): 70.8 IU/L | BUN (3 h): 13.6 mg/dL | CRE (3 h): 0.5 mg/dL | Ca (3 h): 10.9 mg/dL | Cl (3 h): 104.8 meq/L | DBIL (3 h): 0.08 mg/dL | GLC (3 h): 193 mg/dL | IP (3 h): 9.3 mg/dL | K (3 h): 4.7 meq/L | LDH (3 h): 91.8 IU/L | Na (3 h): 139.8 meq/L | PL (3 h): 133.8 mg/dL | RALB (3 h): 3.8 g/dL | TBIL (3 h): 0.3 mg/dL | TC (3 h): 73.4 mg/dL | TG (3 h): 58.4 mg/dL | TP (3 h): 5.4 g/dL | gamma-GTP (3 h): 1.2 IU/L | TERMINAL_BW (6 h): 216 g | APTT (6 h): 16.4 s | Bas (6 h): 0% | Eos (6 h): 0.6% | Fbg (6 h): 217.8 mg/dL | Hb (6 h): 13.3 g/dL | Ht (6 h): 39.8% | Lym (6 h): 70% | MCH (6 h): 22.2 pg | MCHC (6 h): 33.6% | MCV (6 h): 66.2 fL | Mono (6 h): 8.6% | Neu (6 h): 20.8% | PT (6 h): 11.2 s | Plat (6 h): 109.8 x10_4/uL | RBC (6 h): 600.6 x10_4/ul | Ret (6 h): 9.3% | WBC (6 h): 102.1 x10_2/uL | KIDNEY_L (6 h): 1 g | KIDNEY_R (6 h): 1 g | KIDNEY_TOTAL (6 h): 2 g | LIVER (6 h): 9.7 g | A/G (6 h): 1.8 | ALP (6 h): 849.4 IU/L | ALT (6 h): 32.8 IU/L | AST (6 h): 72 IU/L | BUN (6 h): 13 mg/dL | CRE (6 h): 0.6 mg/dL | Ca (6 h): 10.8 mg/dL | Cl (6 h): 105.6 meq/L | DBIL (6 h): 0 mg/dL | GLC (6 h): 191 mg/dL | IP (6 h): 9.5 mg/dL | K (6 h): 4.6 meq/L | LDH (6 h): 73.2 IU/L | Na (6 h): 140.2 meq/L | PL (6 h): 131.4 mg/dL | RALB (6 h): 3.4 g/dL | TBIL (6 h): 0.4 mg/dL | TC (6 h): 71.8 mg/dL | TG (6 h): 63.4 mg/dL | TP (6 h): 5.2 g/dL | gamma-GTP (6 h): 1.4 IU/L | TERMINAL_BW (9 h): 212.7 g | APTT (9 h): 16.6 s | Bas (9 h): 0% | Eos (9 h): 1.2% | Fbg (9 h): 232.6 mg/dL | Hb (9 h): 13 g/dL | Ht (9 h): 38.7% | Lym (9 h): 59.6% | MCH (9 h): 22.1 pg | MCHC (9 h): 33.7% | MCV (9 h): 65.6 fL | Mono (9 h): 4.2% | Neu (9 h): 35.2% | PT (9 h): 11.2 s | Plat (9 h): 112.1 x10_4/uL | RBC (9 h): 589.8 x10_4/ul | Ret (9 h): 10.3% | WBC (9 h): 124.2 x10_2/uL | KIDNEY_L (9 h): 1 g | KIDNEY_R (9 h): 1 g | KIDNEY_TOTAL (9 h): 2 g | LIVER (9 h): 8.7 g | A/G (9 h): 1.9 | ALP (9 h): 803.6 IU/L | ALT (9 h): 33.6 IU/L | AST (9 h): 69 IU/L | BUN (9 h): 10.4 mg/dL | CRE (9 h): 0.5 mg/dL | Ca (9 h): 10.9 mg/dL | Cl (9 h): 105.8 meq/L | DBIL (9 h): 0.024 mg/dL | GLC (9 h): 196.8 mg/dL | IP (9 h): 9.7 mg/dL | K (9 h): 4.9 meq/L | LDH (9 h): 94 IU/L | Na (9 h): 139 meq/L | PL (9 h): 143.4 mg/dL | RALB (9 h): 3.5 g/dL | TBIL (9 h): 0.4 mg/dL | TC (9 h): 89.6 mg/dL | TG (9 h): 33.8 mg/dL | TP (9 h): 5.4 g/dL | gamma-GTP (9 h): 1.8 IU/L | TERMINAL_BW (24 h): 227.8 g | APTT (24 h): 16.9 s | Bas (24 h): 0% | Eos (24 h): 1.4% | Fbg (24 h): 242.2 mg/dL | Hb (24 h): 13.1 g/dL | Ht (24 h): 39.2% | Lym (24 h): 77.8% | MCH (24 h): 21.8 pg | MCHC (24 h): 33.5% | MCV (24 h): 65.1 fL | Mono (24 h): 6% | Neu (24 h): 14.6% | PT (24 h): 11.5 s | Plat (24 h): 125.6 x10_4/uL | RBC (24 h): 602.2 x10_4/ul | Ret (24 h): 9.2% | WBC (24 h): 76.2 x10_2/uL | KIDNEY_L (24 h): 1 g | KIDNEY_R (24 h): 1 g | KIDNEY_TOTAL (24 h): 1.9 g | LIVER (24 h): 11.2 g | A/G (24 h): 1.8 | ALP (24 h): 977.2 IU/L | ALT (24 h): 31.4 IU/L | AST (24 h): 61.4 IU/L | BUN (24 h): 19.4 mg/dL | CRE (24 h): 0.5 mg/dL | Ca (24 h): 11.3 mg/dL | Cl (24 h): 104 meq/L | DBIL (24 h): 0.01 mg/dL | GLC (24 h): 209 mg/dL | IP (24 h): 8.4 mg/dL | K (24 h): 4.5 meq/L | LDH (24 h): 86 IU/L | Na (24 h): 139.8 meq/L | PL (24 h): 156.6 mg/dL | RALB (24 h): 3.7 g/dL | TBIL (24 h): 0.3 mg/dL | TC (24 h): 88.2 mg/dL | TG (24 h): 101 mg/dL | TP (24 h): 5.9 g/dL | gamma-GTP (24 h): 1 IU/L

From ChEMBL document CHEMBL3885861, “Open TG-GATES”
